Laboratory results: patent US20210045385A1, “PYRIDAZINONE-SUBSTITUTED KETOXIMES AS HERBICIDES” (FMC Corporation, priority 2018, published 2021)

Experiments:
Assay type in all cases: in vivo
[1] = system: ducksalad (Heteranhera limosa); test: Test B flooded paddy test, visual plant response rating; conditions: 250 g ai/ha, Flood, applied to paddy water, 2-leaf stage, evaluated after 13 to 15 days
Protocol: (§1) Plant species in the flooded paddy test selected from rice (Oryza sativa), sedge, umbrella (small-flower umbrella sedge, Cyperus difformis), ducksalad (Heteranhera limosa), and barnyardgrass (Echinochloa crus-galli) were grown to the 2-leaf stage for testing. At time of treatment, test pots were flooded to 3 cm above the soil surface treated by application of test compounds directly to the paddy water, and then maintained at that water depth for the duration of the test. Treated plants and controls were maintained in a greenhouse for 13 to 15 days, after which time all species were compared to controls and visually evaluated. […] A dash (-) response means no test result.

[2] = system: sedge, umbrella (small-flower umbrella sedge, Cyperus difformis); test: as above; conditions: 250 g ai/ha, Flood, applied to paddy water, 2-leaf stage, evaluated after 13 to 15 days
Protocol: as §1

rice (Oryza sativa) = test: as above; conditions: 250 g ai/ha, Flood, applied to paddy water, 2-leaf stage, evaluated after 13 to 15 days
Protocol: as §1

[3] = system: barnyardgrass (Echinochloa crus-galli); test: as above; conditions: 250 g ai/ha, Flood, applied to paddy water, 2-leaf stage, evaluated after 13 to 15 days
Protocol: as §1

[4] = system: foxtail, giant (giant foxtail, Setaria faberii); test: Test A preemergence, visual plant response rating; conditions: for Foxtail, Giant plant response rating: 125 g ai/ha, preemergence, 0 to 100 scale, 0 no effect, 100 complete control; for Foxtail, Giant plant response rating (0 to 100 scale): approx. 10 days
How it was run: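 Compared with untreated controls, treated plants received a visual injury score on a 0–100 scale around 10 days after application. The compound, in a non-phytotoxic solvent with surfactant, was given as a preemergence soil spray or postemergence at the one- to two-leaf stage.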

[5] = system: pigweed (Amaranthus retroflexus); test: Test A preemergence, visual plant response rating; conditions: for Pigweed plant response rating: 125 g ai/ha, preemergence, 0 to 100 scale, 0 no effect, 100 complete control; for Pigweed plant response rating (0 to 100 scale): approx. 10 days
How it was run: (§2)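 Greenhouse pot test in loam–sand soil mix: compound in a surfactant-containing non-phytotoxic solvent applied preemergence (directed soil spray) or postemergence (one- to two-leaf plants, 2–10 cm). Injury scored visually after ~10 days, 0–100.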

kochia (Kochia scoparia) [6] = test: Test A preemergence, visual plant response rating; conditions: for Kochia plant response rating: 125 g ai/ha, preemergence, 0 to 100 scale, 0 no effect, 100 complete control; for Kochia plant response rating (0 to 100 scale): approx. 10 days
How it was run: as §2

[7] = system: Italian ryegrass (Lolium multiflorum); test: Test A preemergence, visual plant response rating; conditions: for Ryegrass, Italian plant response rating: 125 g ai/ha, preemergence, 0 to 100 scale, 0 no effect, 100 complete control; for Ryegrass, Italian plant response rating (0 to 100 scale): approx. 10 days
How it was run: as §2

[8] = system: barnyardgrass (Echinochloa crus-galli); test: Test A preemergence, visual plant response rating; conditions: for Barnyardgrass plant response rating: 125 g ai/ha, preemergence, 0 to 100 scale, 0 no effect, 100 complete control; for Barnyardgrass plant response rating (0 to 100 scale): approx. 10 days
How it was run: as §2

[9] = system: ragweed (common ragweed, Ambrosia elatior); test: Test A preemergence, visual plant response rating; conditions: for Ragweed plant response rating: 125 g ai/ha, preemergence, 0 to 100 scale, 0 no effect, 100 complete control; for Ragweed plant response rating (0 to 100 scale): approx. 10 days
How it was run: as §2

corn (Zea mays) = test: Test A postemergence, visual plant response rating; conditions: for Corn plant response rating (0 to 100 scale): 500 g ai/ha, postemergence, 0 is no effect, 100 is complete control; for Corn plant response rating: Postemergence, 125 g ai/ha, 0 to 100 scale (0 no effect, 100 complete control)
From the text: (§3) Seeds of plant species selected from barnyardgrass (Echinochloa crus-galli), kochia (Kochia scoparia), ragweed (common ragweed, Ambrosia elatior), Italian ryegrass (Lolium multiflorum), foxtail, giant (giant foxtail, Setaria faberii), foxtail, green (green foxtail, Setaria viridis), and pigweed (Amaranthus retroflexus) were planted into a blend of loam soil and sand and treated preemergence with a directed soil spray using test chemicals formulated in a non-phytotoxic solvent mixture which included a surfactant.
(§4) At the same time, plants selected from these weed species and also wheat (Triticum aestivum), corn (Zea mays), blackgrass (Alopecurus myosuroides), and galium (catchweed bedstraw, Galium aparine) were planted in pots containing the same blend of loam soil and sand and treated with postemergence applications of test chemicals formulated in the same manner. Plants ranged in height from 2 to 10 cm and were in the one- to two-leaf stage for the postemergence treatment. Treated plants and untreated controls were maintained in a greenhouse for approximately 10 days, after which time all treated plants were compared to untreated controls and visually evaluated for injury. Plant response ratings, summarized in Table A, are based on a 0 to 100 scale where 0 is no effect and 100 is complete control. A dash (-) response means no test result.

[10] = system: foxtail, giant (giant foxtail, Setaria faberii); test: Test A postemergence, visual plant response rating; conditions: for Foxtail, Giant plant response rating (0 to 100 scale): 500 g ai/ha, postemergence, 0 is no effect, 100 is complete control; for Foxtail, Giant plant response rating: Postemergence, 125 g ai/ha, 0 to 100 scale (0 no effect, 100 complete control)
From the text: as §3, §4

[11] = system: wheat (Triticum aestivum); test: Test A postemergence, visual plant response rating; conditions: for Wheat plant response rating (0 to 100 scale): 500 g ai/ha, postemergence, 0 is no effect, 100 is complete control; for Wheat plant response rating: Postemergence, 125 g ai/ha, 0 to 100 scale (0 no effect, 100 complete control)
From the text: as §3, §4

[12] = system: galium (catchweed bedstraw, Galium aparine); test: Test A postemergence, visual plant response rating; conditions: for Galium plant response rating (0 to 100 scale): 500 g ai/ha, postemergence, 0 is no effect, 100 is complete control; for Galium plant response rating: Postemergence, 125 g ai/ha, 0 to 100 scale (0 no effect, 100 complete control)
From the text: as §3, §4

[13] = system: blackgrass (Alopecurus myosuroides); test: Test A postemergence, visual plant response rating; conditions: for Blackgrass plant response rating (0 to 100 scale): 500 g ai/ha, postemergence, 0 is no effect, 100 is complete control; for Blackgrass plant response rating: Postemergence, 125 g ai/ha, 0 to 100 scale (0 no effect, 100 complete control)
From the text: as §3, §4

[14] = system: pigweed (Amaranthus retroflexus); test: Test A postemergence, visual plant response rating; conditions: for Pigweed plant response rating (0 to 100 scale): 500 g ai/ha, postemergence, 0 is no effect, 100 is complete control; for Pigweed plant response rating: Postemergence, 125 g ai/ha, 0 to 100 scale (0 no effect, 100 complete control)
From the text: as §3, §4

kochia (Kochia scoparia) [15] = test: Test A postemergence, visual plant response rating; conditions: for Kochia plant response rating (0 to 100 scale): 500 g ai/ha, postemergence, 0 is no effect, 100 is complete control; for Kochia plant response rating: Postemergence, 125 g ai/ha, 0 to 100 scale (0 no effect, 100 complete control)
From the text: as §3, §4

[16] = system: Italian ryegrass (Lolium multiflorum); test: Test A postemergence, visual plant response rating; conditions: for Ryegrass, Italian plant response rating (0 to 100 scale): 500 g ai/ha, postemergence, 0 is no effect, 100 is complete control; for Ryegrass, Italian plant response rating: Postemergence, 125 g ai/ha, 0 to 100 scale (0 no effect, 100 complete control)
From the text: as §3, §4

[17] = system: barnyardgrass (Echinochloa crus-galli); test: Test A postemergence, visual plant response rating; conditions: for Barnyardgrass plant response rating (0 to 100 scale): 500 g ai/ha, postemergence, 0 is no effect, 100 is complete control; for Barnyardgrass plant response rating: Postemergence, 125 g ai/ha, 0 to 100 scale (0 no effect, 100 complete control)
From the text: as §3, §4

[18] = system: ragweed (common ragweed, Ambrosia elatior); test: Test A postemergence, visual plant response rating; conditions: for Ragweed plant response rating (0 to 100 scale): 500 g ai/ha, postemergence, 0 is no effect, 100 is complete control; for Ragweed plant response rating: Postemergence, 125 g ai/ha, 0 to 100 scale (0 no effect, 100 complete control)
From the text: as §3, §4

Row | Compound | Plant response rating, Ducksalad (0 to 100 scale, 0 is no effect, 100 is complete control) [1] | Plant response rating, Sedge, Umbrella (0 to 100 scale, 0 is no effect, 100 is complete control) [2] | Plant response rating, Rice (0 to 100 scale, 0 is no effect, 100 is complete control) (rice (Oryza sativa)) | Plant response rating, Barnyardgrass (0 to 100 scale, 0 is no effect, 100 is complete control) [3] | Foxtail, Giant plant response rating (0 to 100 scale) ([4]; 500 g ai/ha Preemergence) | Pigweed plant response rating (0 to 100 scale) ([5]; 500 g ai/ha Preemergence) | Kochia plant response rating (0 to 100 scale) (kochia (Kochia scoparia) [6]; 500 g ai/ha Preemergence) | Ryegrass, Italian plant response rating (0 to 100 scale) ([7]; 500 g ai/ha Preemergence) | Barnyardgrass plant response rating (0 to 100 scale) ([8]; 500 g ai/ha Preemergence) | Ragweed plant response rating (0 to 100 scale) ([9]; 500 g ai/ha Preemergence) | Corn plant response rating (0 to 100 scale) (corn (Zea mays)) | Corn plant response rating (corn (Zea mays)) | Foxtail, Giant plant response rating (0 to 100 scale) [10] | Foxtail, Giant plant response rating [10] | Wheat plant response rating (0 to 100 scale) [11] | Wheat plant response rating [11] | Galium plant response rating (0 to 100 scale) [12] | Galium plant response rating [12] | Blackgrass plant response rating (0 to 100 scale) [13] | Blackgrass plant response rating [13] | other results
1 | C=CCc1ccccc1C(=NOC)c1c(O)c(C)nn(C)c1=O [Compound 121] | 0 | 0 | 0 | 0 | 80 | 90 | 30 | 100 | 20 | 50 | 10 | 0 | 60 | 20 | 40 | 30 | 90 | 60 | 70 | 30 | Foxtail, Giant plant response rating [4]: 10; Pigweed plant response rating [5]: 10; Kochia plant response rating (kochia (Kochia scoparia) [6]): 0; Ryegrass, Italian plant response rating [7]: 50; Barnyardgrass plant response rating [8]: 0; Ragweed plant response rating [9]: 10; Pigweed plant response rating (0 to 100 scale) [14]: 70; Pigweed plant response rating [14]: 50; Kochia plant response rating (0 to 100 scale) (kochia (Kochia scoparia) [15]): 60; Kochia plant response rating (kochia (Kochia scoparia) [15]): 40; Ryegrass, Italian plant response rating (0 to 100 scale) [16]: 90; Ryegrass, Italian plant response rating [16]: 60; Barnyardgrass plant response rating (0 to 100 scale) [17]: 70; Barnyardgrass plant response rating [17]: 0; Ragweed plant response rating (0 to 100 scale) [18]: 70; Ragweed plant response rating [18]: 40
2 | CO/N=C(\c1c(O)c(Cl)nn(C)c1=O)c1cccc2ccccc12 [Compound 129, 6-chloro-5-hydroxy-4-[(Z)-(methoxyimino)-1-naphthalenylmethyl]-2-methyl-3(2H)-pyridazinone] | 0 | 0 | 0 | 0 | 80 | 90 | 50 | 0 | 80 | 100 | 0 | 0 | 60 | 40 | 0 | 0 | 90 | 80 | 70 | 30 | Foxtail, Giant plant response rating [4]: 60; Pigweed plant response rating [5]: 10; Kochia plant response rating (kochia (Kochia scoparia) [6]): 10; Ryegrass, Italian plant response rating [7]: 0; Barnyardgrass plant response rating [8]: 60; Ragweed plant response rating [9]: 70; Pigweed plant response rating (0 to 100 scale) [14]: 70; Pigweed plant response rating [14]: 40; Kochia plant response rating (0 to 100 scale) (kochia (Kochia scoparia) [15]): 80; Kochia plant response rating (kochia (Kochia scoparia) [15]): 70; Ryegrass, Italian plant response rating (0 to 100 scale) [16]: 10; Ryegrass, Italian plant response rating [16]: 0; Barnyardgrass plant response rating (0 to 100 scale) [17]: 50; Barnyardgrass plant response rating [17]: 30; Ragweed plant response rating (0 to 100 scale) [18]: 100; Ragweed plant response rating [18]: 90
3 | C#CCn1nc(C)c(O)c(C(=NOC)c2cccc(Cl)c2)c1=O (mixture of isomers) [Compound 3] | 0 | 0 | 0 | 0 | 10 | 10 | 10 | 70 | 20 | 10 | 20 | 0 | 40 | 10 | 10 | 0 | 70 | 30 | 50 | 10 | Foxtail, Giant plant response rating (0 to 100 scale) ([4]; 125 g ai/ha Preemergence): 0; Pigweed plant response rating (0 to 100 scale) ([5]; 125 g ai/ha Preemergence): 0; Kochia plant response rating (0 to 100 scale) (kochia (Kochia scoparia) [6]; 125 g ai/ha Preemergence): 10; Ryegrass, Italian plant response rating (0 to 100 scale) ([7]; 125 g ai/ha Preemergence): 30; Barnyardgrass plant response rating (0 to 100 scale) ([8]; 125 g ai/ha Preemergence): 0; Ragweed plant response rating (0 to 100 scale) ([9]; 125 g ai/ha Preemergence): 10; Pigweed plant response rating (0 to 100 scale) [14]: 50; Pigweed plant response rating [14]: 20; Kochia plant response rating (0 to 100 scale) (kochia (Kochia scoparia) [15]): 50; Kochia plant response rating (kochia (Kochia scoparia) [15]): 10; Ryegrass, Italian plant response rating (0 to 100 scale) [16]: 80; Ryegrass, Italian plant response rating [16]: 20; Barnyardgrass plant response rating (0 to 100 scale) [17]: 40; Barnyardgrass plant response rating [17]: 0; Ragweed plant response rating (0 to 100 scale) [18]: 60; Ragweed plant response rating [18]: 20
